Experimental findings from US9296741B2, “Bromodomain inhibitors” (priority 2012, dated 2016) are described below.

The structures appear in SMILES notation.

Series [1] in a line: Mouse liver microsome stability assay. Type of series: in vitro ADME. The note with it: male, CD1, mouse, microsomes, pH 7.4. (Liver microsomes are a subcellular fraction often used to study metabolism.)
In series [2] the target is human BRD4 second bromodomain (BDII_E352-M457) (Homo sapiens (Human), UniProt O60885). As to the kind of experiment: TR-FRET bromodomain binding assay, BRD4 second bromodomain. (In general: In TR-FRET formats the signal depends on donor and acceptor labels being close together.)
The nature of series [3]: Rat liver microsome stability assay. Type of series: in vitro ADME. The note with it: rat liver microsomes (male Sprague-Dawley), 0.5 μM test compound, 0.25 mg/mL microsomal protein, pH 7.4, 37° C.; read-out: Stability in rat liver microsomes (t1/2 in minutes).
Series [4] addresses human BRD4 first bromodomain (BDI_K57-E168) (Homo sapiens (Human), UniProt O60885). Nature of the series: TR-FRET bromodomain binding assay, BRD4 first bromodomain.
For series [5], the system named is LPS induced IL-6 production. Nature of the series: LPS (lipopolysaccharide) induced IL-6 production mouse assay. It counts as in vivo. The note with it: 1 h before LPS, serum IL-6 2 h after LPS; for inhibition in vivo at 3 mg/kg: Mus musculus, read-out: Inhibition of LPS induced IL-6 production in Mice, % inhibition at 3 mg/kg, 3 mg/kg oral.
Series [6] in a line: Human liver microsome stability assay. It counts as in vitro ADME. The note with it: both sexes, human, microsomes, pH 7.4.
The subject of series [7] is breast cancer cell line MX-1. Nature of the series: MX-1 cell line proliferation assay. The note with it: Homo sapiens, MX1, 72 h; MX-1 cells, 3-day proliferation, Cell Titer Glo; read-out: Cellular proliferation: EC50. Type of series: cell-based, human. For orientation: Cellular ATP, detected with luciferase, serves as a proxy for viable cell number.

As usually defined, the Ki is a dissociation constant, usually derived from enzyme kinetics or from competition with a known ligand. Read a high Ki as lower affinity. For the compound `CCS(=O)(=O)c1ccc(OC2CCC3(CC2)OCCO3)c(-c2cn(C)c(=O)c3[nH]ccc23)c1` [Example 197, 4-[2-(1,4-dioxaspiro[4.5]dec-8-yloxy)-5-(ethylsulfonyl)phenyl]-6-methyl-1,6-dihydro-7H-pyrrolo[2,3-c]pyridin-7-one], the half-life at 0.5 μM in series [1] was determined as 10 min; in series [3], 15 min; in series [6] it was 16 min. The figures for the Ki in series [2] and in series [4] were 0.79 nM and 1.5 nM, respectively. In series [5], the inhibition in vivo at 3 mg/kg is 59%. Also, the EC50 in series [7] was 11.7 nM.

For `Cn1cc(-c2cc(S(C)(=O)=O)ccc2Oc2ccccc2)c2cc[nH]c2c1=O` [Example 85, 6-methyl-4-[5-(methylsulfonyl)-2-phenoxyphenyl]-1,6-dihydro-7H-pyrrolo[2,3-c]pyridin-7-one], the half-life at 0.5 μM was 34 min in series [1], 6 min in series [3] and 43 min in series [6]. Besides, the Ki in series [2] was determined as 1.7 nM; in series [4], 6.4 nM. In addition, in series [5], the inhibition in vivo at 3 mg/kg is 80%. Further, the EC50 in series [7] was 52 nM.

On to `Cn1cc(-c2cc(S(C)(=O)=O)ccc2Oc2ccc(F)cc2F)c2cc[nH]c2c1=O` [Example 138, 4-[2-(2,4-difluorophenoxy)-5-(methylsulfonyl)phenyl]-6-methyl-1,6-dihydro-7H-pyrrolo[2,3-c]pyridin-7-one], for which the values for the half-life at 0.5 μM in series [1], in series [3] and in series [6] were 45 min, 51 min and 52 min, respectively. The Ki came to 9.5 nM in series [2] and 16.7 nM in series [4]. Further, the inhibition in vivo at 3 mg/kg in series [5] is 72%. Besides, the EC50 in series [7] came to 85.1 nM.

As to `Cn1cc(-c2cc(NS(=O)(=O)CC(F)(F)F)ccc2Oc2ccccc2)c2cc[nH]c2c1=O` [Example 5, 2,2,2-trifluoro-N-[3-(6-methyl-7-oxo-6,7-dihydro-1H-pyrrolo[2,3-c]pyridin-4-yl)-4-phenoxyphenyl]ethanesulfonamide], the results for the half-life at 0.5 μM in series [1], in series [3] and in series [6] were 24 min, 6 min and 100 min, respectively. In addition, the Ki is 6.4 nM in series [2] and 15 nM in series [4]. The “Inhibition of LPS induced IL-6 production in Mice, % inhibition at 50 mg/kg” value in series [5] (50 mg/kg oral) stood at 74% at 50 mg/kg. Moreover, the EC50 in series [7] worked out at 31 nM.

As for `Cn1nc(-c2cc(NS(C)(=O)=O)ccc2Oc2ccc(F)cc2F)c2cc[nH]c2c1=O` [Example 159, N-[4-(2,4-difluorophenoxy)-3-(6-methyl-7-oxo-6,7-dihydro-1H-pyrrolo[2,3-d]pyridazin-4-yl)phenyl]methanesulfonamide], the half-life at 0.5 μM turned out to be 59 min in series [1], 107 min in series [3] and 89 min in series [6]. For the same compound, the values for the Ki in series [2] and in series [4] were 20.7 nM and 37 nM, respectively. Further, the inhibition in vivo at 3 mg/kg in series [5] was determined as 58%. In addition, in series [7], the EC50 worked out at 62.4 nM.

For the compound `Cn1cc(-c2cc(S(C)(=O)=O)ccc2OCC2(C)CC2)c2cc[nH]c2c1=O` [Example 231, 6-methyl-4-{2-[(1-methylcyclopropyl)methoxy]-5-(methylsulfonyl)phenyl}-1,6-dihydro-7H-pyrrolo[2,3-c]pyridin-7-one], the half-life at 0.5 μM was 72 min in series [1], over 120 min in series [3] and 33 min in series [6]. Also, the Ki was 6.7 nM in series [2] and 3.7 nM in series [4]. Moreover, the inhibition in vivo at 3 mg/kg in series [5] was determined as 51%. The EC50 in series [7] was 6.3 nM.

As to `Cn1cc(-c2cc(NS(C)(=O)=O)ccc2OC2CCC(F)(F)CC2)c2cc[nH]c2c1=O` [Example 59, N-{4-[(4,4-difluorocyclohexyl)oxy]-3-(6-methyl-7-oxo-6,7-dihydro-1H-pyrrolo[2,3-c]pyridin-4-yl)phenyl}methanesulfonamide], the half-life at 0.5 μM in series [1] is 23 min; in series [3], 40 min; in series [6] it was over 120 min. Besides, the Ki in series [2] turned out to be 1.6 nM; in series [4], 0.84 nM. Further, the inhibition in vivo at 3 mg/kg in series [5] was found to be 54%. In addition, the EC50 in series [7] came to 18.7 nM.
